According to patent US9657002B2, “Oxindole derivatives carrying an oxetane substituent and use thereof for treating vassopressin-related diseases” (AbbVie Deutschland GmbH & Co. KG, priority 2013, dated 2017):
Like-named read-outs stand apart in the source and are kept apart here.

What was measured:
Sprague Dawley rats = assay: Forced swim test; type: in vivo; settings: i.p. 24, 4 and 0.5 hours before testing, at 10 mg/kg
Text: (§1) Male NMRI mice (Janvier, Le Genest-St-Isle, France) were used for stress-induced Adrenocorticotropic hormone (ACTH) release. Adult male Wistar rats (175-220 g body weight upon arrival) were obtained from Harlan Inc. (Indianapolis, Ind.). For the forced swim test, male Sprague Dawley rats (100-120 g body weight upon arrival) were obtained from Janvier (Le Genest-St-Isle, France). The animals were acclimatized to the animal facilities for at least one week before the start of the experimental procedures. Animals were maintained in a controlled environment on a 12:12 hour light dark schedule (lights on 06:00 h for rats in Vogel conflict test and 05:30 h for rats in forced swim test). Experimental procedures took place during the illuminated phase of the light/dark cycle. Food and water were available ad libitum, except for the Vogel conflict test, where the animals were submitted to a water deprivation regimen as described below. […]
The forced swim test consisted of a pre-test and a test swim. […] Test swims were recorded on videotape and subsequently used for analysis. […]

[1] = biological target: T1, human vasopressin V1b receptor (Homo sapiens, UniProt P47901); assay: biochemical
T1 sequence (P47901 1-424): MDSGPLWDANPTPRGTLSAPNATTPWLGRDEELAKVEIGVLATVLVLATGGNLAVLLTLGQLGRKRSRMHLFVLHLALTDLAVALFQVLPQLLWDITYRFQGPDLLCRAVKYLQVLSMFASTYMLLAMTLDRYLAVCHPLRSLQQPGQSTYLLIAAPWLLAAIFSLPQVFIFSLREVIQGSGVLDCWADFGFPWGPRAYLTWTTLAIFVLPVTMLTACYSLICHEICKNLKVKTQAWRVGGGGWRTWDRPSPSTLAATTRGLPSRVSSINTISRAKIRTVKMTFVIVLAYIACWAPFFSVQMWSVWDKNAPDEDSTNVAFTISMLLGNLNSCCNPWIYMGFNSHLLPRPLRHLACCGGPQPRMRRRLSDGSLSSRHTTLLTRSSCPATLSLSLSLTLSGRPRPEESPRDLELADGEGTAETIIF

[2] = biological target: human vasopressin V1a receptor (Homo sapiens, UniProt P37288); assay: Vasopressin V1a receptor binding assay; settings: selectivity quotient, human V1a vs human V1b
human vasopressin V1a receptor, sequence (P37288 whole entry): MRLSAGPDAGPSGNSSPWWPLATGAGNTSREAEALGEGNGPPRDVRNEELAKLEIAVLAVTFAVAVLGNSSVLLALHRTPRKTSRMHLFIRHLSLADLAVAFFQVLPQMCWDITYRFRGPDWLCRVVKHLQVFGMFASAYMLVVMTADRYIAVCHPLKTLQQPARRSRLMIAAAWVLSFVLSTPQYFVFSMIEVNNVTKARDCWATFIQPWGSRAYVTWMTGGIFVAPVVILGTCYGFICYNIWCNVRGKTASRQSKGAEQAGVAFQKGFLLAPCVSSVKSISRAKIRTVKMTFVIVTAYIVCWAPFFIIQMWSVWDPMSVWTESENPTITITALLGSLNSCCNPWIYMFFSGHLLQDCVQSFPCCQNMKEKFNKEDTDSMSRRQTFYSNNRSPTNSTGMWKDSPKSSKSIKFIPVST

Wistar rats = assay: Vogel conflict test; type: in vivo; settings: i.p. 30 minutes before the test, at 10 and 30 mg/kg
Text: as §1
The Vogel conflict test is a well-validated animal model to detect compounds with anxiolytic properties. […] The number of punished responses was automatically recorded for each rat during 5 min of testing. […]

[3] = tested on: stress-induced ACTH release; assay: Stress-induced ACTH release; type: in vivo, NMRI mice; settings: mice, restraint stress, i.p. 1 hour before; at 10 and 30 mg/kg
Text: as §1
The blood was collected in 1.3 mL blood sampling vials containing potassium EDTA (Sarstedt, Nümbrecht, Germany) and […] aprotinin solution (saline solution, 3-7 TIU [trypsin inhibitor units]/mg protein; Sigma-Aldrich, Germany). […] ACTH concentrations were measured by an ELISA (enzyme-linked immuno sorbent assay) for ACTH (IBL Hamburg, Germany). […]

[4] = biological target: T1, human vasopressin V1b receptor; settings: read-out: Ki(h-V1b)*, CHO-K1 membranes, 3H-AVP displacement

Compound	latency to immobility in the forced swim test (antidepressant-like effect) (Sprague Dawley rats)	Ki [1] [nM]	Ki(h-V1a)/Ki(h-V1b) [2]	punished responses in Vogel conflict (anxiolytic-like efficacy) (Wistar rats)	stress-induced ACTH release [3]	Ki [4] [nM]
COc1ccc(S(=O)(=O)N2C(=O)[C@@](NC(=O)N3CCN(C4CCN(C5COC5)CC4)CC3)(c3cccnc3OC)c3cc(C#N)ccc32)c(OC)c1 [Example 21, N-[(3S)-5-cyano-1-(2,4-dimethoxyphenyl)sulfonyl-3-(2-methoxy-3-pyridyl)-2-oxo-indolin-3-yl]-4-[1-(oxetan-3-yl)-4-piperidyl]piperazine-1-carboxamide]	significant antidepressant-like effect	10 to 100	+++ (>75)	significant effect	significantly blocked the stress response	
(S)—N-(5-cyano-1-((2,4-dimethoxyphenyl)sulfonyl)-3-(2-ethoxypyridin-3-yl)-2-oxoindolin-3-yl)-4-(4-(oxetan-3-yl)piperazin-1-yl)piperidine-1-carboxamide [Example 2]			++ (25-75)			1 to 10
